Assay results reported in US10562887B2, “Triazolones and tetrazolones as inhibitors of ROCK” (BRISTOL-MYERS SQUIBB COMPANY, priority 2016, dated 2020).

Target: ROCK2 (Homo sapiens (Human), UniProt O75116)
Assay: ROCK2 assay (peptide phosphorylation, LABCHIP 3000 Reader)
Format: biochemical
Conditions: 5 μM ATP, 1.5 μM peptide substrate
Procedure, shortened: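 Human ROCK2 reaction in 20 mM HEPES pH 7.5, 20 mM MgCl2, 0.015% Brij-35, 4 mM DTT, with 5 μM ATP and 1.5 μM FITC-labelled peptide, DMSO <2%. Stopped with EDTA; phosphorylated and unphosphorylated peptide separated by microfluidic mobility shift. IC50 from dose-response curve fit.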

Sequence of ROCK2 (O75116 whole entry, species assumed): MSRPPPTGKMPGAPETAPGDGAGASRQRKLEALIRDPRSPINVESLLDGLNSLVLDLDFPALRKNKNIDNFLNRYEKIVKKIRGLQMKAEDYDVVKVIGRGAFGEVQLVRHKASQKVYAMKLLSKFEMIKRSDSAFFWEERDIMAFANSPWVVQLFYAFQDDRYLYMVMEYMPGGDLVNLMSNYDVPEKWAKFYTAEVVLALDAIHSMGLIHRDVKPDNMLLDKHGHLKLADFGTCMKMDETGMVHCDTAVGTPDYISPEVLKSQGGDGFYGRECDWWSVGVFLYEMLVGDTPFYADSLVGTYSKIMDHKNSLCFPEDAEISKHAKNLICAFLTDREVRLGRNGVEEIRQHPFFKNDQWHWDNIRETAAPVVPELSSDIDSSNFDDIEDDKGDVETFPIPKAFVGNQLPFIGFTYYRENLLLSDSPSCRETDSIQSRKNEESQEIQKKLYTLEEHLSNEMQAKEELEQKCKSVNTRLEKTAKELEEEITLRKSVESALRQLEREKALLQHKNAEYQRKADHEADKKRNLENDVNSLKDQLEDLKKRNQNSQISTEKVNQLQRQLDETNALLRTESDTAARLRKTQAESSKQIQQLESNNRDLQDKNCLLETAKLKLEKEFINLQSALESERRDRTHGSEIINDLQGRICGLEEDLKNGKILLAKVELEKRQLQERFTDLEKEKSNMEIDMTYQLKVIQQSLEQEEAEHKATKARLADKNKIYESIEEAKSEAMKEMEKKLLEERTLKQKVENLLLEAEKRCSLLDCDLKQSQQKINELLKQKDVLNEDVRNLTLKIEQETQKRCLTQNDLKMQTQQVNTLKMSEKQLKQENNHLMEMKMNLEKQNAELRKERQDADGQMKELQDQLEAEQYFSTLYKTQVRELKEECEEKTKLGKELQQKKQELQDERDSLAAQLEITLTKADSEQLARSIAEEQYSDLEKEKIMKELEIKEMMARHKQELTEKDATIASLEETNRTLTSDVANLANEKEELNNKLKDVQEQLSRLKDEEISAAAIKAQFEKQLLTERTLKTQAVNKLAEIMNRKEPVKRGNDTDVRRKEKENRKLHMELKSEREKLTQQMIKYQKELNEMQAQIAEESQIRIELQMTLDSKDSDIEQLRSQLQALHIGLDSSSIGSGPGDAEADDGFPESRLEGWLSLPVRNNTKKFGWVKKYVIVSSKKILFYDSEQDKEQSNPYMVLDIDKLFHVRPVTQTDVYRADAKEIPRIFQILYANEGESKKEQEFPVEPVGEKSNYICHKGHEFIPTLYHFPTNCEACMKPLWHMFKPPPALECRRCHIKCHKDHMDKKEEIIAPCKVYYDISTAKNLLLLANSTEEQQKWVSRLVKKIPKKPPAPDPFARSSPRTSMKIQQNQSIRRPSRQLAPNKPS

IC50	SMILES
0.005 to 0.05 µM	COc1cc(F)cc(Cn2c(CN(C)C)nn(-c3ccc(-c4cn[nH]c4)cc3)c2=O)c1 [Example 148, 1-(4-(1H-pyrazol-4-yl)phenyl)-3-((dimethylamino)methyl)-4-(3-fluoro-5-methoxybenzyl)-1H-1,2,4-triazol-5(4H)-one]
0.005 to 0.05 µM	COc1cc(F)cc(Cn2c(CN3CCOCC3)nn(-c3ccc(-c4cn[nH]c4)cc3)c2=O)c1 [Example 149, 1-(4-(1H-pyrazol-4-yl)phenyl)-4-(3-fluoro-5-methoxybenzyl)-3-(morpholinomethyl)-1H-1,2,4-triazol-5(4H)-one]
0.005 to 0.05 µM	COc1cc(F)cc(Cn2c(CN3CCCC3)nn(-c3ccc(-c4cn[nH]c4)cc3)c2=O)c1 [Example 150, 1-(4-(1H-pyrazol-4-yl)phenyl)-4-(3-fluoro-5-methoxybenzyl)-3-(pyrrolidin-1-ylmethyl)-1H-1,2,4-triazol-5(4H)-one]
0.005 to 0.05 µM	COc1cc(F)cc(Cn2c(CNCCO)nn(-c3ccc(-c4cn[nH]c4)cc3)c2=O)c1 [Example 151, 1-(4-(1H-pyrazol-4-yl)phenyl)-4-(3-fluoro-5-methoxybenzyl)-3-(((2-hydroxyethyl)amino)methyl)-1H-1,2,4-triazol-5(4H)-one]
0.005 to 0.05 µM	COc1cc(F)cc(Cn2c(CN3CCNCC3)nn(-c3ccc(-c4cn[nH]c4)cc3)c2=O)c1 [Example 152, 1-(4-(1H-pyrazol-4-yl)phenyl)-4-(3-fluoro-5-methoxybenzyl)-3-(piperazin-1-ylmethyl)-1H-1,2,4-triazol-5(4H)-one]
0.005 to 0.05 µM	COc1cc(F)cc(Cn2c(CNC(C)CO)nn(-c3ccc(-c4cn[nH]c4)cc3)c2=O)c1 (stereo not drawn) [Example 153, 1-(4-(1H-pyrazol-4-yl)phenyl)-4-(3-fluoro-5-methoxybenzyl)-3-(((1-hydroxypropan-2-yl)amino)methyl)-1H-1,2,4-triazol-5(4H)-one]
0.005 to 0.05 µM	COc1cc(F)cc(Cn2c(CN3CCC(O)C3)nn(-c3ccc(-c4cn[nH]c4)cc3)c2=O)c1 (stereo not drawn) [Example 155, 1-(4-(1H-pyrazol-4-yl)phenyl)-4-(3-fluoro-5-methoxybenzyl)-3-((3-hydroxypyrrolidin-1-yl)methyl)-1H-1,2,4-triazol-5(4H)-one]
0.005 to 0.05 µM	COc1cccc(Cn2c(CN3CCC(O)C3)nn(-c3ccc(-c4cn[nH]c4)cc3)c2=O)c1 (stereo not drawn) [Example 156, 1-(4-(1H-pyrazol-4-yl)phenyl)-3-((3-hydroxypyrrolidin-1-yl)methyl)-4-(3-methoxybenzyl)-1H-1,2,4-triazol-5(4H)-one]
0.05 to 0.25 µM	COc1ccc(F)cc1Cn1c(CO)nn(-c2ccc(-c3cn[nH]c3)cc2)c1=O [Example 157, 1-(4-(1H-pyrazol-4-yl)phenyl)-4-(5-fluoro-2-methoxybenzyl)-3-(hydroxymethyl)-1H-1,2,4-triazol-5(4H)-one]
0.005 to 0.05 µM	COc1cc(Cn2c(CO)nn(-c3ccc(-c4cn[nH]c4)cc3)c2=O)ccc1F [Example 158, 1-(4-(1H-pyrazol-4-yl)phenyl)-4-(4-fluoro-3-methoxybenzyl)-3-(hydroxymethyl)-1H-1,2,4-triazol-5(4H)-one]
0.25 to 2 µM	COc1ccc(Cn2c(CO)nn(-c3ccc(-c4cn[nH]c4)cc3)c2=O)cc1F [Example 159, 1-(4-(1H-pyrazol-4-yl)phenyl)-4-(3-fluoro-4-methoxybenzyl)-3-(hydroxymethyl)-1H-1,2,4-triazol-5(4H)-one]
0.25 to 2 µM	COc1cccc(Cn2c(CO)nn(-c3ccc(-c4cn[nH]c4)cc3)c2=O)c1F [Example 160, 1-(4-(1H-pyrazol-4-yl)phenyl)-4-(2-fluoro-3-methoxybenzyl)-3-(hydroxymethyl)-1H-1,2,4-triazol-5(4H)-one]
0.05 to 0.25 µM	COc1cccc(Cn2c(C)nn(-c3ccc(-c4ccnc(N)c4)cc3)c2=O)c1 [Example 161, 1-(4-(2-aminopyridin-4-yl)phenyl)-4-(3-methoxybenzyl)-3-methyl-1H-1,2,4-triazol-5(4H)-one]
0.005 to 0.05 µM	COc1cccc(Cn2cnn(-c3ccc(-c4ccnc(N)c4)cc3)c2=O)c1 [Example 162, 1-(4-(2-aminopyridin-4-yl)phenyl)-4-(3-methoxybenzyl)-1H-1,2,4-triazol-5(4H)-one]
0.05 to 0.25 µM	COc1cccc(Cn2cnn(-c3ccc(-c4ncnc5[nH]ccc45)cc3)c2=O)c1 [Example 163, 1-(4-(7H-pyrrolo[2,3-d]pyrimidin-4-yl)phenyl)-4-(3-methoxybenzyl)-1H-1,2,4-triazol-5(4H)-one]
0.25 to 2 µM	COc1cccc(Cn2c(C)nn(-c3ccc(-c4ncnc5[nH]ccc45)cc3)c2=O)c1 [Example 164, 1-(4-(7H-pyrrolo[2,3-d]pyrimidin-4-yl)phenyl)-4-(3-methoxybenzyl)-3-methyl-1H-1,2,4-triazol-5(4H)-one]
0.005 to 0.05 µM	COc1cccc(Cn2c(C)nn(-c3ccc(-c4ccnc5[nH]ccc45)cc3)c2=O)c1 [Example 165, 1-(4-(1H-pyrrolo[2,3-b]pyridin-4-yl)phenyl)-4-(3-methoxybenzyl)-3-methyl-1H-1,2,4-triazol-5(4H)-one]
0.005 to 0.05 µM	COc1cccc(Cn2c(C)nn(-c3ccc(-c4ccnc(N)n4)cc3)c2=O)c1 [Example 166, 1-(4-(2-aminopyrimidin-4-yl)phenyl)-4-(3-methoxybenzyl)-3-methyl-1H-1,2,4-triazol-5(4H)-one]

IC50	SMILES
< 0.005 µM	COc1cccc(Cn2cnn(-c3ccc(-c4ccnc5[nH]ccc45)cc3)c2=O)c1 [Example 169, 1-(4-(1H-pyrrolo[2,3-b]pyridin-4-yl)phenyl)-4-(3-methoxybenzyl)-1H-1,2,4-triazol-5(4H)-one]
0.005 to 0.05 µM	COc1cccc(Cn2cnn(-c3ccc(-c4ccnc(N)n4)cc3)c2=O)c1 [Example 170, 1-(4-(2-aminopyrimidin-4-yl)phenyl)-4-(3-methoxybenzyl)-1H-1,2,4-triazol-5(4H)-one]
0.005 to 0.05 µM	COc1cccc(Cn2nnn(-c3ccc(-c4cn[nH]c4)cc3)c2=O)c1 [Example 172, 1-(4-(1H-pyrazol-4-yl)phenyl)-4-(3-methoxybenzyl)-1H-tetrazol-5(4H)-one]
0.05 to 0.25 µM	O=c1n(Cc2cccc(F)c2)nnn1-c1ccc(-c2cn[nH]c2)cc1 [Example 173, 1-(4-(1H-pyrazol-4-yl)phenyl)-4-(3-fluorobenzyl)-1H-tetrazol-5(4H)-one]
0.05 to 0.25 µM	O=c1n(Cc2cc(F)ccc2F)nnn1-c1ccc(-c2cn[nH]c2)cc1 [Example 174, 1-(4-(1H-pyrazol-4-yl)phenyl)-4-(2,5-difluorobenzyl)-1H-tetrazol-5(4H)-one]
0.005 to 0.05 µM	COc1cc(F)cc(Cn2nnn(-c3ccc(-c4cn[nH]c4)cc3)c2=O)c1 [Example 175, 1-(4-(1H-pyrazol-4-yl)phenyl)-4-(3-fluoro-5-methoxybenzyl)-1H-tetrazol-5(4H)-one]
0.005 to 0.05 µM	CC(c1ccccc1)n1nnn(-c2ccc(-c3cn[nH]c3)cc2)c1=O (stereo not drawn) [Example 176, 1-(4-(1H-pyrazol-4-yl)phenyl)-4-(1-phenylethyl)-1H-tetrazol-5(4H)-one]
0.05 to 0.25 µM	O=c1n(Cc2ccccc2Cl)nnn1-c1ccc(-c2cn[nH]c2)cc1 [Example 177, 1-(4-(1H-pyrazol-4-yl)phenyl)-4-(2-chlorobenzyl)-1H-tetrazol-5(4H)-one]
0.005 to 0.05 µM	O=c1n(Cc2ccccc2)nnn1-c1ccc(-c2cn[nH]c2)cc1 [Example 178, 1-(4-(1H-pyrazol-4-yl)phenyl)-4-benzyl-1H-tetrazol-5(4H)-one]
0.05 to 0.25 µM	COc1cc(-n2nnn(Cc3ccccc3)c2=O)ccc1-c1cn[nH]c1 [Example 179, 1-benzyl-4-(3-methoxy-4-(1H-pyrazol-4-yl)phenyl)-1H-tetrazol-5(4H)-one]
0.005 to 0.05 µM	COc1cc(-n2nnn(Cc3cccc(F)c3)c2=O)ccc1-c1cn[nH]c1 [Example 180, 1-(3-fluorobenzyl)-4-(3-methoxy-4-(1H-pyrazol-4-yl)phenyl)-1H-tetrazol-5(4H)-one]
0.05 to 0.25 µM	COc1cc(-n2nnn(Cc3cc(F)ccc3F)c2=O)ccc1-c1cn[nH]c1 [Example 181, 1-(2,5-difluorobenzyl)-4-(3-methoxy-4-(1H-pyrazol-4-yl)phenyl)-1H-tetrazol-5(4H)-one]
0.005 to 0.05 µM	COc1cc(F)cc(Cn2nnn(-c3ccc(-c4cn[nH]c4)c(OC)c3)c2=O)c1 [Example 182, 1-(3-fluoro-5-methoxybenzyl)-4-(3-methoxy-4-(1H-pyrazol-4-yl)phenyl)-1H-tetrazol-5(4H)-one]
0.05 to 0.25 µM	COc1cc(-n2nnn(Cc3ccccc3F)c2=O)ccc1-c1cn[nH]c1 [Example 183, 1-(2-fluorobenzyl)-4-(3-methoxy-4-(1H-pyrazol-4-yl)phenyl)-1H-tetrazol-5(4H)-one]
0.05 to 0.25 µM	COc1cc(-n2nnn(Cc3c(F)cccc3F)c2=O)ccc1-c1cn[nH]c1 [Example 184, 1-(2,6-difluorobenzyl)-4-(3-methoxy-4-(1H-pyrazol-4-yl)phenyl)-1H-tetrazol-5(4H)-one]
0.25 to 2 µM	COc1cc(-n2nnn(Cc3cccc(C#N)c3)c2=O)ccc1-c1cn[nH]c1 [Example 185, 3-((4-(3-methoxy-4-(1H-pyrazol-4-yl)phenyl)-5-oxo-4,5-dihydro-1H-tetrazol-1-yl)methyl)benzonitrile]
0.25 to 2 µM	COc1cc(-n2nnn(Cc3ccc(F)cc3)c2=O)ccc1-c1cn[nH]c1 [Example 186, 1-(4-fluorobenzyl)-4-(3-methoxy-4-(1H-pyrazol-4-yl)phenyl)-1H-tetrazol-5(4H)-one]
0.005 to 0.05 µM	COc1cccc(Cn2nnn(-c3ccc(-c4cn[nH]c4)c(OC)c3)c2=O)c1 [Example 187, 1-(3-methoxy-4-(1H-pyrazol-4-yl)phenyl)-4-(3-methoxybenzyl)-1H-tetrazol-5(4H)-one]

Tested on: IL-1 beta-induced coronary stenosis
Assay: not given
Conditions: long term treatment, porcine model; cited from earlier work

SMILES	coronary constrictive remodeling	coronary stenosis
O=S(=O)(c1cccc2cnccc12)N1CCCNCC1 [fasudil]	promote a regression	progressively reduce coronary stenosis

Tested on: rat stroke model
Assay: not given
Conditions: cited from earlier work

SMILES	infarct size and neurologic deficit
O=S(=O)(c1cccc2cnccc12)N1CCCNCC1 [fasudil]	reduce both the infarct size and neurologic deficit
